Patent US10005773B2, “1-(4-pyrimidinyl)-1H-pyrrolo[3,2-c]pyridine derivatives as NIK inhibitors” (Janssen Pharmaceutica NV, priority 2013, dated 2018)

Assays:
LP-1 cells = experiment: Biological Assay C: antiproliferative activity on LP-1 cells (CellTiter-Glo); assay type: cell-based; conditions: Homo sapiens, 72 hr treatment
Description: (§1) Determination of Antiproliferative Activity on LP-1, L-363 and JJN-3 Cells
(§2) All compounds tested were dissolved in DMSO and further dilutions were made in culture medium. Final DMSO concentration was 0.3% (v/v) in cell proliferation assays. Viability was assessed using CellTiter-Glo cell viability assay kit (Promega). The human LP-1, L-363 and JJN-3 cells (DSMZ) were cultured in RPMI 1640 medium supplemented with 2 mM L-glutamine, and 10% fetal calf serum (PAA). Cells were routinely kept as suspension cells at 37° C. in a humidified 5% CO2 atmosphere. Cells were passaged at a seeding density of 0.2×10^6/ml twice a week. Cells were seeded in black tissue culture treated 96-well plates (Perkin Elmer). Densities used for plating ranged from 2,000 to 6,000 cells per well in a total volume of 75 μl medium. After twenty four hours, drugs and/or solvents were added (25 μl) to a final volume of 100 μl. Following 72 hr of treatment plates were removed from the incubator and allowed to equilibrate to room temperature for approx 10 min. 100 μl CellTiter-Glo reagent was added to each well that was then covered (Perkin Elmer Topseal) and shaken on plate shaker for 10 min. Luminescence was measured on a HTS Topcount (Perkin Elmer). Within an experiment, the results for each treatment were the mean of 2 replicate wells. For initial screening purposes, compounds were tested using a 9 point dilution curve (serial 1:3 dilutions). For each experiment, controls (containing no drug) and a blank incubation (containing cells read at the time of compound addition) were run in parallel. The blank value was subtracted from all control and sample values. For each sample, the mean value for cell growth (in relative light units) was expressed as a percentage of the mean value for cell growth of the control.

JJN-3 cells = experiment: Biological Assay C: antiproliferative activity on JJN-3 cells (CellTiter-Glo); assay type: cell-based; conditions: Homo sapiens, 72 hr treatment
Description: as §1, §2

L-363 cells = experiment: Biological Assay C: antiproliferative activity on L-363 cells (CellTiter-Glo); assay type: cell-based; conditions: Homo sapiens, 72 hr treatment
Description: as §1, §2

[1] = target: T1, Recombinant Human NF-kappaB-Inducing Kinase (NIK/MAP3K14) (Homo sapiens, UniProt Q99558); experiment: Biological Assay A2: inhibition of auto-phosphorylation of recombinant human NIK/MAP3K14 (AlphaScreen); assay type: biochemical; conditions: 25 microM ATP, 0.2 nM NIK/MAP3K14, 1 h at 25° C., averaged over all batches, read-out: Alpha-Screen IC50
T1 sequence (Q99558 whole entry): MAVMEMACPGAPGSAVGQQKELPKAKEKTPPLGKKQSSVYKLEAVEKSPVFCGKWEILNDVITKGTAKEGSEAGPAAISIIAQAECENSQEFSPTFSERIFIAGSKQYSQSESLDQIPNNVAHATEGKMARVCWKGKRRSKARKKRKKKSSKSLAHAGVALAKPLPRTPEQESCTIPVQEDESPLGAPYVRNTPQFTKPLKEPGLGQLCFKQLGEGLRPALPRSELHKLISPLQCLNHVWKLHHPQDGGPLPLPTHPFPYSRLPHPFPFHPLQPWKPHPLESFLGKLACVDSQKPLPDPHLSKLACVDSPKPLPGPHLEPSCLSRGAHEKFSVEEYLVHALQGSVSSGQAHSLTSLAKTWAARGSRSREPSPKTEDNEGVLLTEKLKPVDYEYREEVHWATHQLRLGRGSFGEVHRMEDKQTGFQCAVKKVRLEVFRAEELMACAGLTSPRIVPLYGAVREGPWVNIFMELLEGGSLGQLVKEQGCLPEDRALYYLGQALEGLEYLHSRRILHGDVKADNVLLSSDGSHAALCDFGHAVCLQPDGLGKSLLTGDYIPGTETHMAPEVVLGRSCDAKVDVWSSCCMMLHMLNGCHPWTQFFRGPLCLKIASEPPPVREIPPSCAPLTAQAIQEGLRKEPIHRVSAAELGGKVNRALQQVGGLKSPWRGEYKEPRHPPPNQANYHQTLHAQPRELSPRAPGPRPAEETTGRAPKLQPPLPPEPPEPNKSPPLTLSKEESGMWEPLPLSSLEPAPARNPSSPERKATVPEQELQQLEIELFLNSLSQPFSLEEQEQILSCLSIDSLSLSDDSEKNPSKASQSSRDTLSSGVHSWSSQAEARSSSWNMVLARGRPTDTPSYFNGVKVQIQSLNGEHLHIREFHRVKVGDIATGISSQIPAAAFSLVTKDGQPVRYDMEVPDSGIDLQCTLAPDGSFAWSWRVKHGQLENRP
Description: Inhibition of Auto-Phosphorylation of Recombinant Human NF-kappaB-Inducing Kinase (NIKIMAP3K14) Activity (AlphaScreen®)
NIK/MAP3K14 auto-phosphorylation activity was measured using the AlphaScreen® (ascreen) format (Perkin Elmer). All compounds tested were dissolved in dimethyl sulfoxide (DMSO) and further dilutions were made in assay buffer. Final DMSO concentration was 1% (v/v) in assays. Assay buffer was 50 mM Tris pH 7.5 containing 1 mM EGTA (ethylene glycol tetraacetic acid), 1 mM DTT (dithiothreitol), 0.1 mM Na3VO4, 5 mM MgCl2, 0.01% Tween® 20. Assays were carried out in 384 well Alphaplates (Perkin Elmer). Incubations consisted of compound, 25 microM Adenosine-5′-triphosphate (ATP), and 0.2 nM NIK/MAP3K14. Incubations were initiated by addition of GST-tagged NIK/MAP3K14 enzyme, carried out for 1 h at 25° C. and terminated by addition of stop buffer containing anti-phospho-IKK Ser176/180 antibody. Protein A Acceptor and Glutathione-Donor beads were added before reading using an EnVision® Multilabel Plate Reader (Perkin Elmer). Signal obtained in the wells containing blank samples was subtracted from all other wells and IC50's were determined by fitting a sigmoidal curve to % inhibition of control versus Log10 compound concentration.

[2] = tested on: P-IKKα levels in L363 cells; experiment: Biological Assay B: effect of compounds on P-IKKα levels in L363 cells; assay type: cell-based; conditions: Homo sapiens, L-363, BAFF stimulated, 2 hr treatment, averaged over all batches, read-out: IKKα Cellular IC50
Description: Effect of Compounds on P-IKKα Levels in L363 Cells
All compounds tested were dissolved in DMSO and further dilutions were made in culture medium. Final DMSO concentration was 1% (v/v) in cell assays. The human L363 cells (ATCC) were cultured in RPMI 1640 medium supplemented with GlutaMax and 10% fetal calf serum (PAA). Cells were routinely maintained at densities of 0.2×10^6 cells per ml-1×10^6 cells per ml at 37° C. in a humidified 5% CO2 atmosphere. Cells were passaged twice a week splitting back to obtain the low density. Cells were seeded in 96 well plates (Nunc 167008) at 2×10^6 per ml media in a volume of 75 μl per well plus 25 μl 1 μg/ml recombinant human B-cell activating factor (BAFF/BLyS/TNFSF13B). Seeded cells were incubated at 37° C. in a humidified 5% CO2 atmosphere for 24 hr. Drugs and/or solvents were added (20 μl) to a final volume of 120 μl. Following 2 hr treatment plates were removed from the incubator and cell lysis was achieved by the addition of 30 μl 5× lysis buffer followed by shaking on a plate shaker at 4° C. for 10 min. At the end of this incubation lysed cells were centrifuged at 800×g for 20 min at 4° C. and the lysate was assessed for P-IKKα levels by sandwich immuno-assay carried out in anti-rabbit antibody coated Mesoscale plates. Within an experiment, the results for each treatment were the mean of 2 replicate wells. For initial screening purposes, compounds were tested using an 8 point dilution curve (serial 1:3 dilutions). For each experiment, controls (containing MG132 and BAFF but no test drug) and a blank incubation (containing MG132 and BAFF and 10 μM ADS125117, a test concentration known to give full inhibition) were run in parallel. The blank incubation value was subtracted from all control and sample values. To determine the IC50 a sigmoidal curve was fitted to the plot of % inhibition of control P-IKKα levels versus Log10 compound concentration.

[3] = target: T1, Recombinant Human NF-kappaB-Inducing Kinase (NIK/MAP3K14); experiment: Biological Assay A: inhibition of recombinant human NIK/MAP3K14 activity (MSD, MBP substrate); conditions: 25 μM ATP, 10 nM NIK/MAP3K14, 1 h at 25° C.; averaged over all batches; read-out: Biochemical (MSD MBP) IC50
Description: Inhibition of Recombinant Human NF-kappaB-Inducing Kinase (NIKIMAP3K14) Activity
Assay buffer was 50 mM Tris pH 7.5 containing 1 mM ethylene glycol tetraacetic acid (EGTA), 1 mM dithiothreitol (DTT), 0.1 mM Na3VO4, 5 mM MgCl2, 0.01% Tween® 20. Assays were carried out in 384 well Mesoscale high binding plates which had been coated with myelin basic protein (MBP) and blocked with bovine serum albumin to prevent non-specific protein binding. All compounds tested were dissolved in dimethyl sulfoxide (DMSO) and further dilutions were made in assay buffer. Final DMSO concentration was 1% (v/v) in assays. Incubations consisted of compound (1% DMSO in control and blank wells), 25 μM Adenosine-5′-triphosphate (ATP), and 10 nM NIK/MAP3K14 substituting enzyme with buffer in the blank wells. Incubations were carried out for 1 h at 25° C. and were followed by washing and sequential incubation with rabbit anti-phospho-MBP and anti-rabbit Ig Sulfotag antibody before reading bound Sulfotag on a Mesoscale Discovery. Signal obtained in the wells containing blank samples was subtracted from all other wells and IC50's were determined by fitting a sigmoidal curve to % inhibition of control versus Log10 compound concentration.

| Compound | EC50 (LP-1 cells) [nM] | EC50 (JJN-3 cells) [nM] | EC50 (L-363 cells) [nM] | IC50 [1] [nM] | IC50 [2] [nM] | IC50 [3] [nM] |
| --- | --- | --- | --- | --- | --- | --- |
| CC(O)(C#Cc1cc2c(cn1)c(C1CCN(CCC(F)(F)F)CC1)cn2-c1ccnc(N)n1)C1CC1 (single isomer, unassigned) [Compound 51] | 199 | 220 | 108 | 13 |  |  |
| Nc1nccc(-n2ccc3cnc(C#CC4(O)CCCC4)cc32)n1 [Compound 1] | 929 | 320 | 673 |  | 13 | 8.9 |
| CN(C)C(=O)c1cn(-c2ccnc(N)n2)c2cc(C#CC(C)(C)O)ncc12 [Compound 2] | > 30000 | 3320 | 5030 | 180 | 1060 | 73 |
| CC(C)(O)C#Cc1cc2c(ccn2-c2ccnc(N)n2)cn1 [Compound 3] | 84 | 46 | 43 |  | 13 |  |
| Nc1nccc(-n2ccc3cnc(C#CC4(O)CC4)cc32)n1 [Compound 4] | 122 | 56 | 62 | 5.6 | 7.3 | 3.9 |
| CC(O)(C#Cc1cc2c(ccn2-c2ccnc(N)n2)cn1)c1nccs1 (stereo not drawn) [Compound 5] | 3310 | 237 | 2920 | 10 | 18 | 2.4 |
| CNc1nccc(-n2ccc3cnc(C#CC(C)(C)O)cc32)n1 [Compound 6] | 929 | 744 | 774 | 80 | 204 | 55 |
| CC(CC#N)c1cn(-c2nc(N)ncc2F)c2cc(C#CC(C)(C)O)ncc12 (stereo not drawn) [Compound 38] | 2600 | 614 | 261 | 38 |  |  |
| COCCCc1cn(-c2nc(N)ncc2F)c2cc(C#CC(C)(C)O)ncc12 [Compound 39] | 849 | 579 | 369 | 36 |  |  |
| CC(C)(O)C#Cc1cc2c(cn1)c(C1CCN(CCF)CC1)cn2-c1nc(N)ncc1F [Compound 40] | 259 | 151 | 93 | 74 |  |  |
| CN1CCC(c2cn(-c3ccnc(N)n3)c3cc(C#CC(C)(O)C4CC4)ncc23)CC1 (stereo not drawn) [Compound 41] | 3240 | 311 | 213 | 78 |  |  |
| CC(O)(C#Cc1cc2c(cn1)c(C1(F)CN(C3CC3)C1)cn2-c1ccnc(N)n1)C1CC1 (stereo not drawn) [Compound 42] | 18200 | 2790 | 1540 | 638 |  |  |
| CC(O)(C#Cc1cc2c(cn1)c(C1CCN(CCC(F)(F)F)CC1)cn2-c1ccnc(N)n1)C1CC1 (stereo not drawn) [Compound 43] | 461 | 442 | 292 | 67 |  |  |
| CC(O)(C#Cc1cc2c(cn1)c(C1CCN(C3CC3)CC1)cn2-c1ccnc(N)n1)C1CC1 (stereo not drawn) [Compound 44] | 251 | 202 | 98 | 71 |  |  |
| [2H]C([2H])([2H])C(O)(C#Cc1cc2c(cn1)c(C1CCN(C3CC3)CC1)cn2-c1ccnc(N)n1)C([2H])([2H])[2H] [Compound 45] | 29 | 19 | 8.3 | 49 |  |  |
| CC(O)(C#Cc1cc2c(cn1)c(C1CCN(CCC(F)(F)F)CC1)cn2-c1nc(N)ncc1F)C1CC1 (stereo not drawn) [Compound 46] | 979 | 1090 | 469 | 56 |  |  |
| CC(O)(C#Cc1cc2c(cn1)c(C1CCN(CCCF)CC1)cn2-c1nc(N)ncc1F)C1CC1 (stereo not drawn) [Compound 47] | 237 | 242 | 113 | 34 |  |  |
| CC(O)(C#Cc1cc2c(cn1)c(C1CCCN(CCC(F)(F)F)C1)cn2-c1nc(N)ncc1F)C1CC1 (stereo not drawn) [Compound 48] | 2230 | 1670 | 1000 | 227 |  |  |
| [2H]C([2H])([2H])C(O)(C#Cc1cc2c(cn1)c(C1CCN(CCC(F)(F)F)CC1)cn2-c1nc(N)ncc1F)C([2H])([2H])[2H] [Compound 49] | 244 | 231 | 130 | 69 |  |  |
| [2H]C([2H])([2H])C(O)(C#Cc1cc2c(cn1)c(C1CCN(CCC(F)(F)F)CC1)cn2-c1ccnc(N)n1)C([2H])([2H])[2H] [Compound 50] | 41 | 39 | 23 | 30 |  |  |
| [2H]C([2H])([2H])C(O)(C#Cc1cc2c(cn1)c(C1CCN(Cc3ccccc3)CC1)cn2-c1ccnc(N)n1)C([2H])([2H])[2H] [Compound 52] | 65 | 89 | 49 | 31 |  |  |
| [2H]C([2H])([2H])N1CCC(c2cn(-c3ccnc(N)n3)c3cc(C#CC(O)(C([2H])([2H])[2H])C([2H])([2H])[2H])ncc23)CC1 [Compound 53] | 107 | 32 | 12 | 35 |  |  |
| Cc1cc(C(C)(O)C#Cc2cc3c(cn2)c(C2CCN(C)CC2)cn3-c2ccnc(N)n2)no1 (stereo not drawn) [Compound 54] | 2530 | 656 | 213 | 42 |  |  |
| CN1CCC(c2cn(-c3ccnc(N)n3)c3cc(C#CC(C)(O)c4nccs4)ncc23)CC1 (stereo not drawn) [Compound 56] | 7890 | 2490 | 1240 | 26 |  |  |
